# PMC10545747, “Development of cyclopeptide inhibitors of cGAS targeting protein-DNA interaction and phase separation” (Nature Communications, 2023)
# Where “and” joins values, the source holds several entries; their conditions need not be identical. Equal values may be shown once. Square brackets hold non-standard residues; d marks the D form. Peptide text beside a SMILES is read from it.
# Biological target: T1, recombinant human cGAS enzyme (hcGAS-ΔN, residues 147–522) (Homo sapiens, UniProt Q8N884)
# T1 construct: N-terminally truncated human cGAS (hcGAS-ΔN, residues 147–522); 6xHis-SUMO (N, cleaved yes); made in house; host or cells: Escherichia coli BL21 (DE3)
# Assay: RNA-based fluorescent biosensor assay of cGAS activity (2',3'-cGAMP formation), in vitro screening
# Type: biochemical
# Details: not given
# Method in brief: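 In 40 mM Tris-HCl pH 7.5, 100 mM NaCl, 10 mM MgCl2, ISD (0.5 μM) started the reaction with hcGAS-ΔN (1.5 μM), ATP (1 mM) and GTP (1 mM). Incubation was 2 h at 37 °C, with compounds screened at 20 μM. 2',3'-cGAMP formed was quantified with an RNA-based fluorescent biosensor.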
# T1 sequence (Q8N884 147-522, stated change not applied): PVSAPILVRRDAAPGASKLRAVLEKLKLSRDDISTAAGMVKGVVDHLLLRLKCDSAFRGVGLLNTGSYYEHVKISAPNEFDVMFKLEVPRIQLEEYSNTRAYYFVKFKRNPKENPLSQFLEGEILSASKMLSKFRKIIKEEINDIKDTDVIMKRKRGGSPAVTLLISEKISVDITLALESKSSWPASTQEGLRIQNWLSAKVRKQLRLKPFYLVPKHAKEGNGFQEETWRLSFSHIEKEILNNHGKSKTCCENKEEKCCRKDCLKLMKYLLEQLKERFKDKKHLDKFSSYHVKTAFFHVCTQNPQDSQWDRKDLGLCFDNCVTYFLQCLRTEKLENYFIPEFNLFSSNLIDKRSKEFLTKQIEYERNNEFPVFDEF
row,Compound,cGAS activity in the biosensor assay
1,"CCN(CC)CCCC(C)Nc1c2ccc(Cl)cc2nc2ccc(OC)cc12 (centres unmarked) [quinacrine, reference compound]",inhibited the activity of cGAS in a dose-dependent manner

# Same assay, conditions: 20 μM; replicate values
row,"Remaining activity (%), Fig. 1a source data",Compound
1,48.5808% and 47.6977%,"CC(C)C[C@@H]1NC(=O)[C@H](CCCNC(=N)N)NC(=O)[C@H](C(C)C)NC(=O)[C@H](C)NC(=O)[C@@H](Cc2ccccc2)NC(=O)[C@H](CC(C)C)NC(=O)[C@H](CCCNC(=N)N)NC(=O)[C@H](C(C)C)NC(=O)[C@H](C)NC(=O)[C@@H](Cc2ccccc2)NC1=O [XQ8, Cyclo (LfAVRLfAVR)] (cyclo(AVRL[dF]AVRL[dF]))"
2,101.101% and 103.439% and 102.283%,Cyclo (LaP(T(Bzl))RLaPTR) [XQ41]

# Same assay, conditions: 20 μM; replicate values; read-out: Remaining activity (%), Fig. 1a source data
row,remaining activity at 20 µM [%],Compound
1,48.8,"CC(C)C[C@@H]1NC(=O)[C@H](CCCNC(=N)N)NC(=O)[C@H](C(C)C)NC(=O)[C@H](C)NC(=O)[C@@H](Cc2ccccc2)NC(=O)[C@H](CC(C)C)NC(=O)[C@H](CCCNC(=N)N)NC(=O)[C@H](C(C)C)NC(=O)[C@H](C)NC(=O)[C@@H](Cc2ccccc2)NC1=O [XQ8, Cyclo (LfAVRLfAVR)] (cyclo(AVRL[dF]AVRL[dF]))"

# Same assay, conditions: peptides screened at 20 μM; Supplementary Table 1 / Fig. S5b
row,Compound,Inhibition % [%]
1,Cyclo (AaRVDLfPVR) [XQ87],0
2,Cyclo (LaP(T(Bzl))RLaPTR) [XQ41],0
3,Cyclo (Lf(Hyp)TDAfPVR) [XQ88],7
4,Cyclo (LfPTDAfPVR) [XQ84],0
5,Cyclo (LfPTDLf(K(Alloc))VR) [XQ72],0
6,Cyclo (LfPTDLf(Orn(Dde))VR) [XQ70],0
7,Cyclo (LfPTDLfPVR) [XQ90],5
8,Cyclo (LfPVDAfPVR) [XQ81],0
9,Cyclo (LfRADAfPTR) [XQ80],0
10,Cyclo (LfRADAfPVR) [XQ83],0

# Other lines, results leading:
row,Inhibition % [%],Compound
1,0,Cyclo ((hex)DLfPVR(hex)) [XQ69]
2,0,Cyclo (Aa(Hyp)TDLfPTR) [XQ85]
3,0,Cyclo (AaRTDLfPVR) [XQ89]
4,0,Cyclo (Lf(Hyp)TDAfPTR) [XQ86]
5,0,Cyclo (LfRVDAfPVR) [XQ82]

# Same assay, conditions: peptides screened at 20 μM; Supplementary Table 1 / Fig. S5b; 20 µM
row,Inhibition % [%],Compound
1,≥ 40,"CC(C)C[C@@H]1NC(=O)[C@H](CCCNC(=N)N)NC(=O)[C@H](C(C)C)NC(=O)[C@H](C)NC(=O)[C@@H](Cc2ccccc2)NC(=O)[C@H](CC(C)C)NC(=O)[C@H](CCCNC(=N)N)NC(=O)[C@H](C(C)C)NC(=O)[C@H](C)NC(=O)[C@@H](Cc2ccccc2)NC1=O [XQ8, Cyclo (LfAVRLfAVR)] (cyclo(AVRL[dF]AVRL[dF]))"

# Same assay, conditions: peptides screened at 20 μM; Supplementary Table 1 / Fig. S5b; read-out: Inhibition %
row,inhibition at 20 µM [%],Compound
1,52,"CC(C)C[C@@H]1NC(=O)[C@H](CCCNC(=N)N)NC(=O)[C@H](C(C)C)NC(=O)[C@H](C)NC(=O)[C@@H](Cc2ccccc2)NC(=O)[C@H](CC(C)C)NC(=O)[C@H](CCCNC(=N)N)NC(=O)[C@H](C(C)C)NC(=O)[C@H](C)NC(=O)[C@@H](Cc2ccccc2)NC1=O [XQ8, Cyclo (LfAVRLfAVR)] (cyclo(AVRL[dF]AVRL[dF]))"

# Tested on: THP1-Lucia ISG cells
# Assay: Luciferase reporter assay, dsDNA stimulation
# Type: cell-based, human
# Parameters: Type I interferon response, luciferase activity, Fig. 1c / luciferase activity, Fig. 2a: scale not given here
# Details: dsDNA 24 h; replicate values
# Source text: (§1) To screen direct cGAS inhibitors targeting protein-DNA interface from our developed focused library of macrocyclic peptides, we applied an RNA-based fluorescent biosensor for 2’,3’-cGAMP to detect cGAS activity in vitro (Supplementary Fig. 1a)[49]. The formation of 2’,3’-cGAMP from ATP and GTP was catalyzed by recombinant human cGAS enzyme (hcGAS-ΔN, residues 147–522, Supplementary Fig. 1b) in the presence of ISD (interferon stimulatory DNA, a 45-bp dsDNA), which was readily quantified by the RNA-based fluorescent biosensor and was further confirmed by ion exchange chromatography (Supplementary Fig. 1c). […] Subsequently, a total of 90 macrocyclic peptides were screened at a concentration of 20 μM (Fig. 1a and Supplementary Fig. 1e), and 4 hits (XQ2, XQ8, XQ19, and XQ46) were obtained for further testing at a cut-off of 40% inhibition (Supplementary Table 1). To evaluate the inhibitory effect of the hits against cGAS in cells, we employed real-time quantitative PCR (qPCR) to examine mRNA levels of IFNΒ1 in THP1 cells. The reported cGAS inhibitor RU.521 was used as the positive control, and the non-active peptide XQ28 in the screening assay was used as the negative control. […] The inhibition of cGAS by these hits was further confirmed in the reporter cell line THP1-Lucia ISG (Invivogen) that expresses secreted luciferase induced by an IRF3-inducible ISG54 promoter (Fig. 1c). The discrepancy between the inhibitory effect of the hits in protein and cellular assays may be attributed to their different cellular permeability.
# THP1-Lucia ISG cells (Invivogen) were seeded into a 96-well plate and incubated with RU.521 (Invivogen) or XQ2 for the indicated time, and then transfected with dsDNA by lipofectamine 2000 (Invitrogen) or infected by HSV-1 with the indicated titer for 24 h. The supernatant was collected and 50 μL QUANTI-Luc Luciferase reagent (Invivogen) was added to 20 μL supernatants per well, and luciferase luminescence was detected by a microplate reader (BioTek Synergy H1) immediately.
row,Compound,"Type I interferon response, luciferase activity, Fig. 1c"
1,"CC(C)C[C@@H]1NC(=O)[C@H](CCCNC(=N)N)NC(=O)[C@H](C(C)C)NC(=O)[C@H](C)NC(=O)[C@@H](Cc2ccccc2)NC(=O)[C@H](CC(C)C)NC(=O)[C@H](CCCNC(=N)N)NC(=O)[C@H](C(C)C)NC(=O)[C@H](C)NC(=O)[C@@H](Cc2ccccc2)NC1=O [XQ8, Cyclo (LfAVRLfAVR)] (cyclo(AVRL[dF]AVRL[dF]))",1.122 and 0.7764 and 0.491

# Tested on: dsDNA-stimulated THP1 cells
# Assay: qPCR of IFNB1/CXCL10/IL6 mRNA in THP1 cells stimulated by dsDNA (ISD, HSV60mer)
# Type: cell-based, human
# Details: THP1, dsDNA 6 h; hits 10 μM; replicate values
# Source text: as §1
# The indicated cells were stimulated with either ISD (Sangon Biotech), HSV-1 (Provided by Dr. Zhengfan Jiang), HSV60mer (Sangon Biotech), SATE-cddA[70], 2’3’-cGAMP (Invivogen, Cat# tlrl-nacga23-1), ADU-S100 (MedChemExpress, Cat# HY-12885A) or Poly(I:C) (Invivogen, Cat# tlrl-pic) after XQ2 or XQ2B treatment. Total RNA was isolated from indicated cells that incubated with the drugs for indicated time or mice tissues by using NucleoZOL reagent (MACHEREY-NAGEL) according to the manufacturer’s instructions. The quantifications of mRNA levels were carried out by real-time PCR using a PerfectStart® Uni RT&qPCR Kit (TransGen Biotech) on the QuantStudio 5 qPCR machine (Applied Biosystems). Samples were carried out in triplicate and the target CT values were normalized to GAPDH CT values. Primers of qPCR used in this study can be found in Supplementary Table S2.
row,Compound,"IFNB1 mRNA, qPCR, Fig. 1b"
1,"CC(C)C[C@@H]1NC(=O)[C@H](CCCNC(=N)N)NC(=O)[C@H](C(C)C)NC(=O)[C@H](C)NC(=O)[C@@H](Cc2ccccc2)NC(=O)[C@H](CC(C)C)NC(=O)[C@H](CCCNC(=N)N)NC(=O)[C@H](C(C)C)NC(=O)[C@H](C)NC(=O)[C@@H](Cc2ccccc2)NC1=O [XQ8, Cyclo (LfAVRLfAVR)] (cyclo(AVRL[dF]AVRL[dF]))",50.5074 and 61.5926 and 57.7936
